Data: patent publication US12697367B2, “Medicament for improving or preventing symptoms relating to retina and/or light reception and method for screening for substance capable of improving or preventing symptoms relating to retina and/or light reception” (Osaka University, priority 2018, dated 2026)

How the values were obtained:
[1] = test system: BALB/c mice with light-induced damage (blue LED light); assay: Light-induced damage experiment in mice: immunofluorescence staining of the photoreceptor layer of the retina; type: in vivo; conditions: tacrolimus 10 mg/kg subcutaneously every day for 6 days
Procedure: For dark adaptation, BALB/c mice aged 4 weeks (Japan SLC, Inc.) were housed in the dark for 12 hours. […] For control mice, DMSO was administered. Mydriatic eye drops, […] Pharmaceutical Co., Ltd.), were administered in the dark 30 minutes before completion of dark adaptation. The mice were placed in a box with four mirrored walls and a mirrored floor, and exposed to blue light from a blue LED light. The wavelength of the blue LED light was about 450 nm, and the light reaching the mice was about 7000 lx. After exposure to blue light for 3 hours, the mice were housed under normal light conditions (about 30 lx light from fluorescent lamps) for 9 hours. This dark/light cycle repeated as one cycle for 6 days. In other words, administration of the drug and exposure to blue light (3 hours) were performed every day for 6 days to induce light-induced damage. On the next day following the last exposure to blue light, the mice were euthanized and the eyes were harvested. The specimens were fixed in 4% paraformaldehyde/PBS (phosphate buffer saline) at room temperature for 5 minutes. The specimens were then washed with PBS, and embedded in O.C.T. compound (Sakura Finetek). Retinal cryosections of 20 μm thick were sliced with a cryostat, mounted on glass slides, and dried at room temperature. The sections were washed twice with PBS, and blocked with blocking buffer (5% normal donkey serum and 0.1% TritonX-100 in PBS) at room temperature for 1 hour. The sections were reacted with primary antibodies at 4° C. overnight. The sections were washed three times with PBS, and reacted with secondary antibodies at room temperature for 2 hours. The primary antibodies used in this study were anti-Rhodopsin antibody (rhodopsin, rabbit polyclonal, Santa Cruz, 1:500 dilution), anti-S-opsin antibody (S-opsin (blue cone opsin), goat polyclonal, Santa Cruz, 1:500 dilution), and anti-M-opsin antibody (M-opsin (green cone opsin), rabbit polyclonal, Millipore, 1:500 dilution). […] All the fluorescence images were acquired under a confocal laser scanning microscope (LSM 700, Carl Zeiss).

[2] = test system: BALB/c mice with light-induced damage (blue LED light); assay: Light-induced damage experiment in mice: measurement of thickness of photoreceptor layer; type: in vivo; conditions: tacrolimus 10 mg/kg subcutaneously every day for 6 days; blue light about 450 nm, about 7000 lx, 3 hours daily; vs DMSO control; FIG. 3
Procedure: For dark adaptation, BALB/c mice aged 4 weeks (Japan SLC, Inc.) were housed in the dark for 12 hours. […] For control mice, DMSO was administered. Mydriatic eye drops, Cyplegin (Santen Pharmaceutical Co., Ltd.), were administered in the dark 30 minutes before completion of dark adaptation. The mice were placed in a box with four mirrored walls and a mirrored floor, and exposed to blue light from a blue LED light. The wavelength of the blue LED light was about 450 nm, and the light reaching the mice was about 7000 lx. After exposure to blue light for 3 hours, the mice were housed under normal light conditions (about 30 lx light from fluorescent lamps) for 9 hours. This dark/light cycle repeated as one cycle for 6 days. In other words, administration of the drug and exposure to blue light (3 hours) were performed every day for 6 days to induce light-induced damage.
Mouse retinal sections prepared in the same manner as above were washed twice with PBS, and the nuclei were stained with DAPI. The thickness of the photoreceptor layer was measured as the distance from the optic nerve. Specifically, the images were acquired under a confocal laser scanning microscope (LSM 700, Carl Zeiss), and the thickness of the photoreceptor layer was measured using the image analysis software Metamorph (Molecular Devices).

In the case of `C=CC[C@@H]1/C=C(\C)C[C@H](C)C[C@H](OC)[C@H]2O[C@@](O)(C(=O)C(=O)N3CCCC[C@H]3C(=O)O[C@H](/C(C)=C/[C@@H]3CC[C@@H](O)[C@H](OC)C3)[C@H](C)[C@@H](O)CC1=O)[C@H](C)C[C@@H]2OC` [tacrolimus, (3S,4R,5S,8R,9E,12S,14S,15R,16S,18R,19R,26aS)-5,19-Dihydroxy-3-{(1E)-2-[(1R,3R,4R)-4-hydroxy-3-methoxycyclohexyl]-1-methylethenyl}-14,16-dimethoxy-4,10,12,18-tetramethyl-8-(prop-2-en-1-yl)-15,19-epoxy-5,6,8,11,12,13,14,15,16,17,18,19,24,25,26,26a-hexadecahydro-3H-pyrido[2,1-c][1,4]oxaazacyclotricosine-1,7,20,21(4H,23H)-tetrone monohydrate], the “structure of the outer segment of the rod photoreceptor cells (anti-Rhodopsin antibody staining)” value ([1]; blue light about 450 nm, about 7000 lx, 3 hours daily, vs DMSO control, FIG. 1) is reported as “maintained and comparable to that of control mice without light-induced damage”, the “structure of the cone photoreceptor cells (anti-S-opsin and anti-M-opsin antibody staining)” value ([1]; blue light about 450 nm, about 7000 lx, 3 hours daily, vs DMSO control, FIG. 2) is reported as “maintained and comparable to that of control mice without light-induced damage” and the “degeneration of photoreceptor cells due to light exposure (overall conclusion)” value ([1]; mice with light-induced damage) is reported as “inhibits the degeneration of photoreceptor cells due to light exposure”. The “thickness of the photoreceptor layer” value [2] was “maintained and comparable to that of control mice without light-induced damage”.
